Test results from patent US10028992B2, “Methods of treating muscular dystrophy” (BOARD OF REGENTS OF THE NEVADA SYSTEM OF HIGHER EDUCATION …, priority 2012, dated 2018).

Test system: α7 integrin promoter
Assay: muscle cell-based assay: α7βgal+/− myoblasts/myotubes, LacZ reporter, β-galactosidase cleavage of FDG
Design: species or system mouse
Settings: for Fit HillSlope: curve fit; for Fit Infinite Activity [%]: fitted activity at infinite concentration; for Fit Zero Activity [%]: fitted activity at zero concentration; for Fit Curve Class: key not given; for Score: Table 12 Compound data, concentration-response curve fit; for AC50 / Emax: Mus musculus; for AC50: read-out: Fit Log AC50 (converted); for Emax: read-out: Max Response [%]
Description: An α7 integrin null mouse was produced in which exon 1 of the gene encoding the α7 integrin was replaced by the LacZ reporter. In these mice, all the transcriptional regulatory elements of the α7 integrin promoter were retained, allowing β-galactosidase to report expression of 7 integrin. A primary myoblast cell line (designated α7βgal^+/−) isolated from 10 day old α7^+/− pups were analyzed for the ability of β-galactosidase to report α7 integrin expression. α7βgal^+/− myoblasts were differentiated and subjected to X-gal staining and western analysis (FIGS. 1A and 1B).
The activity of the α7 integrin promoter was measured by β-galactosidase cleavage of the non-fluorescent compound fluorescein di-β-D-galactopyranoside (FDG) to fluorescein. This assay was used to screen compound libraries to identify molecules that up-regulate α7 integrin expression in muscle.
Also evaluated was the effect of various isoforms of laminin and the ligand for α7β1 integrin on integrin expression. Positive hits were subjected to dose-response analysis, western analysis and a myostatin counterscreen (a negative regulator of muscle growth).

[1] = Table 12, log of AC50, given with negative sign, unit of AC50 not given

Row | SMILES | Max Response [%] | Activity at 0.307 μM [%] ** [%] | Activity at 1.530 μM [%] ** [%] | Activity at 7.660 μM [%] ** (7.660 μM) [%] | Activity at 38.30 μM [%] ** [%] | Fit HillSlope (Table 12) | Fit Infinite Activity [%] (Table 12) | Fit Zero Activity [%] (Table 12) | Fit Curve Class (Table 12) | Fit Log AC50 [1] | Score | AC50 [1] [µM] | Emax [%]
1 | Cc1c(C(=O)O)cccc1-n1c(C)cc(/C=N/Nc2ccc([N+](=O)[O-])cn2)c1C [Compound 9] | 88.6572 | −24.4743 | 6.2893 | 68.0567 | 88.6572 | 1.3723 | 92.2022 | −30.5005 | 1.1 | −5.55 | 85 |  | 
2 | Cc1ccc(NP(=O)(Nc2ccc(C)cc2)Nc2ccc(C)cc2)cc1 [Compound 10] |  | 0 |  |  |  | 2.8473 |  | 0 | 1.1 |  | 85 | 3.16 | 102
3 | Cc1cc(OCC(=O)NC(C)C)ccc1Cl [Compound 11] |  | 0 |  |  |  | 2.5334 |  | −0.509 | 1.1 |  | 85 | 3.98 | 102
4 | COC(=O)C1=C(C)N=C(C)/C(=C(/O)OC)C1c1ccccc1OCc1c(C)no[n+]1[O-] (centres unmarked) [Compound 12] |  |  |  |  |  | 1.4781 |  | 9.3996 | 1.1 |  | 85 | 2.82 | 100
5 | COc1ccc(NC(=O)c2cccc(N3C(=O)c4ccc(C(=O)Nc5ccc(OC)c(O)c5)cc4C3=O)c2)cc1O [Compound 13] |  |  |  |  |  | 3.9295 |  | −27.2857 | 1.1 |  | 84 | 4.47 | 95.6
6 | CCOc1ccc(S(=O)(=O)NCCC(=O)NCC(c2cccs2)N2CCOCC2)cc1 (centres unmarked) [Compound 14] |  |  |  |  |  | 2.3332 |  | −21.9345 | 1.1 |  | 84 | 2.24 | 61.7
7 | CCOc1ccccc1NC(=O)c1cccc2c1C(=O)N(C1CCCCC1)C2 [Compound 15] |  |  |  |  |  | 1.6259 |  | −16.1195 | 1.1 |  | 84 | 3.16 | 73.6
8 | NC(=O)c1nsc(C(=O)N(c2ccccc2)C(C(=O)NCc2ccc(F)cc2)c2ccc(O)cc2)c1N (centres unmarked) [Compound 16] |  |  |  |  |  | 1.3443 |  | −37.8568 | 1.1 |  | 84 | 2.24 | 75.2
9 | CCc1ccc(N(C(=O)c2snc(C(N)=O)c2N)C(C(=O)NC2CCCC2)c2ccco2)cc1 (centres unmarked) [Compound 17] |  |  |  |  |  | 1.2475 |  | −24.7641 | 1.1 |  | 84 | 2.51 | 67.6
10 | COC(=O)C(=O)C/C(=N/Nc1ncnc2ccccc12)c1ccc(Cl)cc1 [Compound 18] |  |  |  |  | 1767.43 | 4.9549 | 1760.36 | 8.7984 | 2.1 |  | 84 | 10 | 
11 | Cc1cc(NC(=O)c2ccc(Cl)cc2Cl)no1 [Compound 19] |  |  |  |  |  | 1.3437 |  | −28.8963 | 1.1 |  | 84 | 1.41 | 52.1
12 | CCOC(=O)Cc1csc(NC(=S)NC(=O)c2cc(OC)c(OC)c(OC)c2)n1 [Compound 20] |  |  |  |  |  | 2.3031 |  | −17.7204 | 1.1 |  | 84 | 3.55 | 82.9
13 | CC(C)CC1NC(=O)N(CC(=O)N2c3ccccc3NC(=O)C2(C)C)C1=O (centres unmarked) [Compound 21] |  |  | 0 |  |  | 4.4495 |  | 1.1731 | 1.1 |  | 84 | 5.62 | 93.3
14 | COCCSc1ccccc1C(=O)Nc1cc(C)cc(C)c1 [Compound 22] |  | 0 | 0 |  |  | 4.9549 |  | −0.2899 | 1.1 |  | 84 | 4.47 | 82.9
15 | O=c1oc2c(-c3cccc(F)c3)cc(O)cc2s1 [Compound 23] |  |  |  |  |  | 2.9023 |  | 13.3122 | 1.1 |  | 84 | 3.98 | 98.9
